From patent US6566397B2, “Acyclic isoprenoid ether derivatives as chemotherapeutics” (Wisconsin Alumni Research Foundation, priority 2000, dated 2003)
Where two headings read alike, the source gives them in different places.

Columns and labels:
[1] = test system: Murine B16 F10 melanoma cells; assay: Growth of murine B16 F10 melanoma cells in monolayer culture, viable cell count by hemocytometer, photomicrographs; assay type: cell-based; details: for apoptosis: 5 μmol/L, B16 melanoma cells, photomicrographs; for IC50: read-out: IC50, inhibition of net increase in cell count
Protocol: Murine B16 F10 melanoma cells (He, L., et al., supra, 1997) were grown in monolayer culture (35×10 mm tissue culture dishes) in 3 ml RPMI 1640 medium (Sigma Biosciences, St. Louis, Mo.) supplemented with 10% fetal bovine serum (FBS, Sigma Biosciences) and 2% penicillin/streptomycin (Penicillin-Streptomycin Liquid, 1×10^7 units penicilin and 1×10^7 μg streptomycin/L of 0.85% saline, GIBCO BRL, Grand Island, N.Y.). Cultures, seeded with 3.3×10^4 cells/mL, were incubated for 24 hours at 37° C. in a humidified atmosphere of 5% CO2. The medium was decanted and replaced with fresh medium containing the test agents and incubations were continued for 48 hours. M363 and M364 were dissolved in ethanol, and lovastatin (Mevinolin, Sigma) in chloroform. […] The medium and detached (apoptotic) cells were decanted, the monolayer was washed twice with Hanks' Balanced Salt Solution (HBSS, Sigma Biosciences) and then incubated with a trypsin-EDTA solution (Sigma Biosciences) at 37° C. for 2 minutes. Trypsin was inactivated by suspending the cells in medium containing 10% FBS. The trypsinized cells were harvested by centrifugation (250×g) and re-suspended in HBSS. Viable cells, cells that excluded 0.4% trypan blue (GIBCO BRL), were counted with a hemocytometer; 0-time (24-h) cell counts were deducted from final cell counts to provide an estimate of the net increase in cell number.
Photomicrographs (100×, 200× and 400×) of representative fields of cultures of B16 melanoma cells were made with a Labopot-2 microscope (Nikon, Japan) equipped with a SenSys digital camera (Photometrics Tucson, Ariz.) and image-acquisition software (MetaMorph Imaging Systems, Universal Imaging Corporation, West Chester, Pa.).
(§1) The IC50 value represents the concentration of an isoprenoid required to inhibit the net increase in cell count by 50% at a time point within the linear growth period plotted for control cells. We determined the IC50 value by plotting cell number against isoprenoid concentration.

[2] = test system: Human HL-60 acute promyelocytic leukemia cells; assay: Growth of human HL-60 leukemia cells in suspension culture, viable cell count by hemocytometer; assay type: cell-based; details: human HL-60 promyelocytic leukemia cells, 24 hours; read-out: IC50, inhibition of net increase in cell count
Protocol: Human HL-60 acute promyelocytic leukemia cells (CCL-240, ATCC) were grown in suspension culture (25 cm^2 flasks) in 8 mL RPMI 1640 medium with 20% FBS and 2% penicillin/streptomycin. Cultures, seeded with 1.25×10^8 cells/L, were incubated with test agents for 24 hours at 37° C. in a humidified atmosphere of 5% CO2. The cells were then collected by centrifugation (250×g) and re-suspended in HBSS. Viable cells, cells that excluded 0.4% trypan blue, were counted with a hemocytometer; 0-time (seeding) cell counts were deducted from final cell counts to provide an estimate of the net increase in cell number.
as §1

[3] = test system: Murine B16(F10) melanoma cells; assay: CellTiter 96 Aqueous One Solution Cell Proliferation Assay; assay type: cell-based; details: 40 hour growth of B16 melanoma cells, 1000 cells/well; read-out: IC50, net absorbance at 490 nm
Protocol: Murine B16(F10) melanoma cells were grown in monolayer culture (96-well tissue culture plate, Fisher Scientific) in 0.1 mL of RPMI 1640 medium (Sigma) supplemented with 10% fetal bovine serum (Sigma) and 80 mg/L of gentamycin (Sigma). Cultures were seeded in triplicate (0 to 2450 cells/well with an increment of 350 cells) and incubated for 24 hours or 64 hours at 37° C. in a humidified atmosphere of 5% CO2. At 24 hours the medium was decanted from each well and replaced with fresh medium. Cell populations of all wells were determined at either 24 hours (0 time, 3 wells) or 64 hours (40 hours, all other wells) by adding 20 μl of CellTiter 96® Aqueous One Solution (Promega, Madison, Wis.) to each well; the plate was held in dart at 37° C. for 2 hours and then read at 490 nm with a SPECTRAmax® 190 multi-plate reader with SOFTmax® PRO (Molecular Devices, Sunnyvale, Calif.). The net absorbance, the difference between the 0 time and 40 hours values, plotted on cell inoculation density is linear to 2000 cells/well (FIG. 6). We then applied this optical method to the estimation of the IC50 for M364.
Plates seeded with 1000 cells/well, the midpoint of cell inoculation density (FIG. 6), were cultured as described above. The medium added at 24 hours (0 time) to experimental wells contained 0-10 μmol/L M364 ([4-(3,7,11-trimethyl-2,6,10-dodecatrienyloxy]-phenyl acetate).

[4] = M364 dietary toxicity study in mice; assay type: in vivo, C57BL6 female mice
Protocol: M364 toxicity and efficacy studies are in progress. Weanling C57BL6 female mice (Harlan Sprague Dawley, Madison, Wis.) are housed in groups of five to six on Cellu-Dri bedding (Waldschmidt & Sons, Inc., Madison, Wis.) in stainless steel cages and maintained at 25° C. with a 12-hour light:dark cycle. Three groups of mice (11/group) are being fed AIN-93G diet supplemented with 0 (A, control), 1 (B) and 10 (C) mmol M364/kg diet. Food intakes for mice are recorded daily and mice are weighed on alternate days. Results to date are mixed. […] As a consequence, the body weight of these mice decreased from 13.6 to 11.7 g; on removing the agent (M364) from the diet the mice rapidly regained body weight.

[5] = test system: murine B16 melanoma cells
[6] = test system: pancreatic tumors implanted in Syrian Golden hamsters; details: 90 mmol/kg diet; cited from earlier work
implanted B16 melanomas [7] = assay: Growth of implanted B16 melanomas, agent in diet; assay type: in vivo
Source text: (§2) We synthesized and tested a series of esters formed between acyclic isoprenoid alcohols (geraniol, farnesol, nerol, citronellol) and diverse acids (proprionate, isobutyrate, formate, butyrate, caprylate, isovalerate, benzoate, tiglate, anthranilate). […] See Mo, et al. Cancer Letters 157:145-153, 2000 (incorporated by reference).
We note that the farnesyl moiety of the test agent comprised trans, trans and cis, trans isomers. […] The prospect of a chemotherapeutic application of […] is dimmed by findings that its very potent tumor-suppressive action is markedly attenuated by […], an essential dietary constituent (Qureshi, A., et al., J. Nutr. 126:389-394, 1996).

[8] = Screening of acyclic isoprenoid esters for tumor-suppressive activity in vitro; assay type: cell-based
Source text: as §2

implanted B16 melanomas [9] = details: cited from earlier work
[10] = murine melanoma B16 cells, 48 hours, hemocytometer

Q: With `CC(=O)Oc1ccc(OCC=C(C)CCC=C(C)C)cc1` [M363, [4-(3,7-dimethyl-2,6-octadienyloxy]-phenyl acetate] as the compound, how does the apoptosis [1] read?
A: Its apoptosis is “initiated apoptosis”.

Q: What about the IC50 [1, 10] of the same compound?
A: Its IC50 is 5.1 ± 0.8 µM.

Q: What about the IC50 [2] of the same compound?
A: Its IC50 is 58.6 ± 2.3 µM.

Q: Which apoptosis [1] does the source give for `CC(=O)Oc1ccc(OCC=C(C)CCC=C(C)CCC=C(C)C)cc1` [M364, [4-(3,7,11-trimethyl-2,6,10-dodecatrienyloxy]-phenyl acetate] here?
A: The apoptosis was “initiated apoptosis”.

Q: What about the “suppression of cell growth” value ([1]; M364 1 μmol/L, B16 cells) of the same compound?
A: The value was 45%.

Q: What about the IC50 [1, 10] of the same compound?
A: Its IC50 is 2 ± 0.6 µM.

Q: What about the IC50 [2] of the same compound?
A: The IC50 was 4.9 ± 3.7 µM.

Q: And the IC50 [3]?
A: The IC50 was 2.2 µM.

Q: And the “body weight and general appearance” value ([4]; 1 mmol M364/kg diet)?
A: The value was “match the controls”.

Q: What about the “general condition of mice” value ([4]; 10 mmol M364/kg diet) of the same compound?
A: Its value is “remained healthy and active”.

Q: What about the food intake ([4]; 10 mmol M364/kg diet, 6 day exposure) of the same compound?
A: The food intake was “decreased”.

Q: And the “body weight after exposure to diet” value ([4]; 10 mmol M364/kg diet, 6 day exposure, decreased from 13.6 g, regained on removing agent)?
A: The value was 11.7 g.

Q: What about the “increase in proportion of cells in G1” value ([5]; M364 1 μmol/L) of the same compound?
A: Its value is 33%.

Q: Which “growth of implanted pancreatic tumors” value [6] does the source give for `CC(C)=CCCC(C)=CCCC(C)=CCO` [farnesol] here?
A: The value was “suppressed the growth”.

Q: What does the source list for `CC(C)=CCCC(C)=CCCC(C)=CCOC(=O)c1ccccc1N` [farnesyl anthranilate]?
A: morphological changes of cells ([1]; 100 μmol/L, B16 cells, 400× photomicrograph FIG. 4F): morphological changes similar to those attained with 10 μmol M364; IC50 ([1]; Mus musculus, 48 h): 45 ± 6 µM; IC50 [2]: 80 ± 10 µM; growth of implanted B16 melanomas (implanted B16 melanomas [7]; 1.5 mmol/kg diet): substantially suppressed the growth; effect of dietary α-tocopherol on the agent's action (implanted B16 melanomas [7]; dietary α-tocopherol): did not compromise; tumor-suppressive activity in vitro [8]: significant tumor-suppressive activity

Q: Which “tumor-suppressive activity in vitro” value [8] does the source give for `CC(C)=CCCC(C)=CCCC(C)=CCOC(=O)c1ccccc1` [farnesyl benzoate] here?
A: Its value is “significant tumor-suppressive activity”.

Q: With `C/C=C(\C)C(=O)OCC=C(C)CCC=C(C)CCC=C(C)C` [farnesyl tiglate] as the compound, how does the “tumor-suppressive activity in vitro” value [8] read?
A: The value was “significant tumor-suppressive activity”.

Q: For `CC(C)=CCC/C(C)=C/COC(=O)c1ccccc1N` [geranyl anthranilate], which “tumor-suppressive activity in vitro” value [8] is on record?
A: The value was “significant tumor-suppressive activity”.

Q: With `CC(C)=CCC/C(C)=C/COC(=O)c1ccccc1` [geranyl benzoate] as the compound, how does the “tumor-suppressive activity in vitro” value [8] read?
A: The value was “significant tumor-suppressive activity”.

Q: With `C/C=C(\C)C(=O)OC/C=C(\C)CCC=C(C)C` [geranyl tiglate] as the compound, how does the “tumor-suppressive activity in vitro” value [8] read?
A: The value was “significant tumor-suppressive activity”.

Q: Which results are given for `CC[C@H](C)C(=O)O[C@H]1C[C@@H](C)C=C2C=C[C@H](C)[C@H](CC[C@@H]3C[C@@H](O)CC(=O)O3)[C@H]21` [lovastatin]?
A: suppression of cell growth ([1]; lovastatin 0.75 μmol/L, B16 cells): 25%; increase in portion of cells in G1 ([5]; lovastatin 0.75 μmol/L): 33%

Q: For `CC(C)=CCC/C(C)=C/CC/C(C)=C/CC[C@]1(C)CCc2cc(O)c(C)c(C)c2O1` [γ-tocotrienol], which “growth of implanted B16 melanomas” value (implanted B16 melanomas [9]; 0.116 mmol/kg diet) is on record?
A: The value was “suppressed the growth”.

Q: What about the “efficacy in suppressing growth of implanted melanomas relative to farnesol” value (implanted B16 melanomas [9]; <1 mmol/kg diet) of the same compound?
A: Its value is roughly 100 ×.
